Experiments:
[1] = system: FGF-stimulated HUVEC; assay: FGF-stimulated HUVEC proliferation assay (BrdU); assay type: cell-based; details: Homo sapiens, FGF 5 ng per mL, BrdU labeling, 24 hour exposure, read-out: IC50 (μM) of VEGF and FGF-Stimulated HUVEC Proliferation Assays HUVEC/bFGFR
Procedure: The antiproliferative activity of test compounds of this invention in cell-based assays was evaluated by BrdU assay using the BrdU kit (Roche Biochemicals 1-647-229). Human umbilical vein endothelial cells (HUVEC, Clonetics CC-2519) were cultured in EGM-2 (Clonetics CC-3162) medium and seeded at 10000 cells per well in a volume of 200 μL of EGM-2 (Clonetics CC-3162) media in a 96-well flat bottom plates (Costar 3595) overnight. After 24 hours of growth at 37° C. with 5% CO2, the incubation media was removed slowly by aspiration and the content of each well was washed with 300 μL pre-warmed EBM-2 (Clonetics CC-3156) containing 50 μg per mL of gentamycin and 50 ng per mL of amphotercin-B (Clonetics CC-4083). Subsequently, the remaining media was again aspirated and replaced with 160 μL per well of serum starvation media (EBM-2 supplemented with 1% heat inactivated FBS (Clonetics CC-4102), 50 μg per mL gentamycin and 50 ng per mL of amphotercin-B (Clonetics CC-4083), 10 units per mL of Wyeth-Ayerst heparin (NDC0641-0391-25), and 2 mM L-glutamine (GIBCO 25030-081). After serum starving the cells for 24 hours, 20 μL of test compound at 10× test concentration in serum starvation medium with 2.5% DMSO was added to the appropriate wells. The control wells contained 20 μL of serum starvation medium with 2.5% DMSO. Plates were returned to the incubator for 2 hours. After pre-incubating the cells with the test compounds for 2 hours, 20 μL of growth factors at 10× assay concentration diluted in serum starvation media, FGF at 50 ng per mL, or VEGF (R&D systems 293-VE) at 200 ng per mL were added. The final concentration of FGF in the assay was 5 ng per mL and the final concentration of VEGF in the assays was 20 ng per mL. The growth factor free control wells had 20 μL per well of serum starvation media with the same amount of BSA as the wells with growth factors. The plates were returned to the incubator for an additional 22 hours.
After 24 hour exposure to the test compounds, the cells were labeled with BrdU (Roche Biochemicals 1-647-229), by adding 20 μL per well of BrdU labeling reagent that has been diluted (1:100) in serum starvation medium. The plates were then returned to the incubator for 4 hours. The labeling medium was removed by draining the medium onto paper towels. The cells were fixed and DNA denatured by adding 200 μL of fixation/denaturation solution to each well and incubating at room temperature for 45 minutes. The fixation/denaturation solution was drained onto paper towels and to each well was added 100 μL of anti-BrdU-POD and the wells were incubated for 2 hours at room temperature. The antibody solution was removed and the wells were each washed 3–4 times with 300 μl PBS. 100 μL of the TMB substrate solution was added to each well and the wells were incubated at room temperature for 5–8 minutes. The reaction was then stopped by adding 100 μL per well of 1 M phosphoric acid. The plates were read at 450 nm with reference wavelength of 650 nm. The percent inhibition for each test compound was calculated by subtracting the absorbency of the blank (no cells) wells from all wells, then subtracting the division of the average absorbency of each test duplicate by the average of the controls from 1. The final product was then multiplied by 100 (% of inhibition=(1−average absorbency of test duplicate/average of control)100). The IC50 value is the concentration of test compound that inhibits by 50% BrdU labeling, and is a measure of inhibition of cell proliferation. The IC50 is determined from the linear regression of a plot of the logarithm of the concentration versus percent inhibition.

[2] = target: T1, FGFR; assay: FGFR kinase HTRF assay; assay type: biochemical; details: 10 μM ATP, read-out: IC50 (μM) - Enzyme Inhibition Assays FGFR
T1 construct: fused on or other part: GST tag
Procedure: To determine inhibition of KDR, FGFR, EGFR, and PDGFR activity, kinase assays were conducted using an HTRF (Homogeneous Time Resolved Fluorescence) assay. This assay is described in A. J. Kolb et. al., Drug Discovery Today, 1998, 3(7), p 333.
Kinase activity assays were performed in 96-well polypropylene plates (Falcon) with a total volume of 90 μL in each well. Each well contained 1 μM KDR substrate (Biotin-EEEEYFELVAKKKK), 1 nM activated KDR, and a test compound with one of 8 assay concentrations ranging from 100 μM to […] (1:5 serial dilution). The kinase activity assay was done in the presence of 100 mM HEPES, pH 7.4, 1 mM DTT, 0.1 mM Na2VO4, 25 mM MgCl2, 50 mM NaCl (from KDR stock solution), 1% DMSO (from compound), 0.3 mM ATP (at Km concentration) and 0.02% BSA. The reaction was incubated at 37° C. for 30 minutes. To stop the KDR reaction, 72 μL of reaction mixture was transferred into a STOP plate containing 18 μL of revelation buffer (20 mM EDTA, 50 mM HEPES, pH 7.4, 0.02% BSA, 10 nM Eu-labelled anti-pY antibody (final conc. 2 nM), and 100 nM streptavidin (final conc. 20 nM)). After mixing, 35 μL of solution was transferred into duplicate wells of a 384-well black plate (Costar), and read at 615/665 nm on a Wallac Victor 5 reader.
FGFR, EGFR, and PDGFR activity assays were carried out as described above for the KDR activity assay with the following differences. GST-tagged FGFR enzyme was activated at room temperature for 1 hour in the following activation buffer: 100 mM HEPES, pH 7.4, 50 mM NaCl, 20 mM MgCl2, and 4 mM ATP. The kinase activity assay was performed with 1 μM substrate (Biotin-EEEEYFELV), 1.5 nM activated FGFR, and test compound in the presence of 100 mM HEPES, 1 mM DTT, 0.4 mM MgCl2, 0.4 mM MnCl2, 50 mM NaCl, 1% DMSO, 10 μM ATP (Km=8.5 μM for FGFR), 0.1 mM Na2VO4, and 0.02% BSA, in a total volume of 90 μL. The rest of the assay was performed in the same manner as KDR assay.
Compound IC50 values were determined from duplicate sets of data, and calculated by using Excel and fitting data to equation Y=[(a−b)/{1+(X/c)^d]+b, where a and b are enzyme activity in the presence of no test inhibitor compound and an infinite amount of inhibitor test compound, respectively, c is the IC50 and d is the hill constant of the compound response. The IC50 value is the concentration of test compound that reduces by 50% the enzyme activity under the test conditions described.

Compound | IC50 [2] [µM] | IC50 [1] [µM]
COc1ccc(N2C(=O)N(c3cccc(C#N)c3)c3nc(Nc4ccccc4)ncc3C2C)cc1 (racemic) [Example 5b, (±)-3-[3-(4-Methoxy-phenyl)-4-methyl-2-oxo-7-phenylamino-3,4-dihydro-2H-pyrimido[4,5-d]pyrimidin-1-yl]-benzonitrile] | < 10 | < 10
COc1ccc(N2C(=O)N(c3ccccc3)c3nc(Nc4ccccc4)ncc3C2C)cc1 (racemic) [Example 1g, (±)-3-(4-Methoxy-phenyl)-4-methyl-1-phenyl-7-phenylamino-3,4-dihydro-1H-pyrimido[4,5-d]pyrimidin-2-one] | < 10 | < 10
COc1ccc(N2C(=O)N(c3ccccc3)c3nc(Nc4ccccc4)ncc3[C@@H]2C)cc1 (single isomer, unassigned) [Example 3] | < 10 | < 10
COc1ccc(N2C(=O)N(c3cccc(C#N)c3)c3nc(Nc4ccccc4)ncc3C2C)c(F)c1 (racemic) [Example 9b, (±)-3-[3-(2-Fluoro-4-methoxy-phenyl)-4-methyl-2-oxo-7-phenylamino-3,4-dihydro-2H-pyrimido[4,5-d]pyrimidin-1-yl]-benzonitrile] | < 10 | < 10

The next lines start with results.

IC50 [2] [µM] | Compound | IC50 [1] [µM]
< 10 | COc1ccc(N2C(=O)N(c3cccc(C(N)=O)c3)c3nc(Nc4ccccc4)ncc3C2C)cc1 (racemic) [Example 6, (±)-3-[3-(4-Methoxy-phenyl)-4-methyl-2-oxo-7-phenylamino-3,4-dihydro-2H-pyrimido[4,5-d]pyrimidin-1-yl]-benzamide] | < 10
< 10 | COc1ccc(N2C(=O)N(c3ccc(OC)cc3)C(C)c3cnc(Nc4ccccc4)nc32)cc1 (racemic) [Example 4b, (±)-1,3-Bis-(4-methoxy-phenyl)-4-methyl-7-phenylamino-3,4-dihydro-1H-pyrimido[4,5-d]pyrimidin-2-one] | < 10
< 10 | COc1ccc(N2C(=O)N(c3ccccc3)c3nc(Nc4ccccc4)ncc3C2C)c(F)c1 (racemic) [Example 8d, (±)-3-(2-Fluoro-4-methoxy-phenyl)-4-methyl-1-phenyl-7-phenylamino-3,4-dihydro-1H-pyrimido[4,5-d]pyrimidin-2-one] | < 10
< 10 | COc1ccc(N2C(=O)N([C@H](C)CO)c3nc(Nc4ccccc4)ncc3[C@@H]2C)cc1 [Example 15b, 1-(2-Hydroxy-1-(R)-methyl-ethyl)-3-(4-methoxy-phenyl)-4-(S)-methyl-7-phenylamino-3,4-dihydro-1H-pyrimido[4,5-d]pyrimidin-2-one] | < 10
< 10 | COc1ccc(N2C(=O)N(c3cccc(C(N)=O)c3)c3nc(Nc4ccccc4)ncc3C2C)c(F)c1 (racemic) [Example 10, (±)-3-[3-(2-Fluoro-4-methoxy-phenyl)-4-methyl-2-oxo-7-phenylamino-3,4-dihydro-2H-pyrimido[4,5-d]pyrimidin-1-yl]-benzamide] | < 10

Reference: patent US7112676B2, “Pyrimido compounds having antiproliferative activity” (Hoffmann-La Roche Inc., priority 2002, dated 2006)
